Literature values as cited in patent US20250319022A1, “CONCENTRATED SOLUTIONS COMPRISING SODIUM 5,10-METHYLENE-(6R)-TETRAHYDROFOLATE” (Merck Patent GMBH, priority 2022, published 2025).

Nc1nc2c(c(=O)[nH]1)N1CN(c3ccc(C(=O)N[C@@H](CCC(=O)O)C(=O)O)cc3)C[C@H]1CN2 [5,10-methylene-(6R,S)-tetrahydrofolic acid]
purity after 7 hours (7 hours after dissolution): 84% | purity after 24 hours compared to the starting purity (% normalized purity) (24 hours following dissolution in water): 44.9% | loss of purity per hour (degradation rate) (reconstituted lyophilizate, linear regression of stability profile): 2.3 % purity per hour
